These results are taken from US20060217456A1, “Non-toxic coating composition, methods of use thereof and articles protected from attachment of biofouling organisms” (priority 2003, published 2006).

Assay [1] has as its system cyprid stage larvae of the barnacle, Balanus amphitrite Darwin. The note with it: single compound; 28° C., 9 hours; see WO 01/95718; cited from earlier work.
For assay [2] the test system is unchanged. Briefly: Barnacle settlement assay (cyprid larvae in seawater dishes). Type of assay: in vivo. The note with it: single compound, 28° C., 9 hours; for EC50: Amphibalanus amphitrite, read-out: EC50 (concentration inhibiting settlement of 50% of cyprid larvae). The text has this: Adults of the barnacle, Balanus amphitrite Darwin, were collected from the Sacred Heart Marine Research Center at St. Mary's College in Tuticorin, India. The barnacles were crushed and the nauplius stage larvae were collected for culture to the cyprid stage following the method of Rittschof et al., J. Exp. Mar. Biol. Ecol., 82:131-146 (1984). The cyprid is the stage at which the barnacle larva is competent to attach to surfaces. Upon attachment to a surface, the larva then undergoes metamorphosis into a barnacle.
Barnacle settlement assays were undertaken using the method described previously by Rittschof et al., J. Chem. Ecol., 11: 551-563 (1985). Briefly, Falcon 50×9 mm plastic petri dishes were filled with 5 ml of filtered seawater at salinity of 33-35 parts per thousand (ppt) and into which 3-day old cyprid stage larvae were added. Menthol and/or isopulegol and/or compounds listed under ii) a) to f), above, were introduced at various concentrations into the dishes containing seawater. Controls were represented by those dishes in which no test compound were added. After incubation at 28° C. for 9 hours, the dishes were examined under a dissecting microscope to determine if there was any mortality. The larvae were then killed with 10% formalin and the number of attached and unattached larvae were counted. Settlement data were expressed as the percentage of the larvae attached to the bottom of the dish.
The settlement assay was used to determine the effective concentration of a number of different compounds listed under ii) a) to f), above. The effective concentration (EC50) is that concentration which inhibited the settlement of fifty percent (50%) of the cyprid stage of the barnacle larvae present in a test sample. The racemic […] compounds are denoted with the prefix rac-.

In assay [3] the test system is barnacle, Balanus amphitrite communis. As to the kind of experiment: Marine paint panel immersion test, barnacles attached to painted iron panels. The note with it: cuprous oxide marine paint on iron panels, submerged 78 weeks, Bitac Cove; control = 100. As for the experimental part: A floating platform was constructed using layers of bamboo and styrofoam floats. The platform was designed with holders to accommodate test panels measuring 4 inches×12 inches×0.25 inches (1 inch=2.54 cm). A first experimental paint was prepared, containing a biocidally effective amount of cuprous oxide and no other biocide which was used as the control. This composition consisted of 40 parts by weight of cuprous oxide, 10 parts by weight of iron oxide red, 5 parts by weight of xylene, 10 parts by weight of butyl alcohol, 5 parts by weight polyamide resin, 6 parts by weight of plasticizer. To this composition was added a combination of 0.5% by weight of rac-isopulegol, 0.25% by weight of (−)-menthol and 0.25% by weight of 1-menthol propyleneglycol carbonate (Composition A). A second paint composition was prepared from the same marine paint vehicle containing cuprous oxide, to which was added 2% by weight of (−)-menthol (Composition B). A third formulation was made from the same cuprous oxide-containing marine paint vehicle, to which was added 2% by weight of rac-isopulegol (Composition C). A fourth formulation was made from the same cuprous oxide-containing marine paint vehicle, to which was added 2% by weight of 1-menthol propyleneglycol carbonate (Composition D). Solid iron panels having the above-mentioned dimensions were painted with the paint formulations thus prepared, placed in the holders in the floating platform and submerged continuously near the center of Bitac Cove in San Dionisio Bay (Philippines) for a period of 78 weeks. The panels were examined for a few minutes every three months and immediately resubmerged after photography. After 78 weeks, the panels were removed and inspected. The numbers of barnacles attached to the panels were counted. The major fouling organisms included the barnacle, Balanus amphitrite communis, and the rock oyster, Crossostrea cuculata.

Values after ≈ are worked out from the molar mass of the structure shown. Where two headings read alike, the source gives them in different places.

Turning to `CC1CCC(C(C)C)C(O)C1` (racemic) [rac-menthol], in assay [1], the “EC50 (concentration inhibiting settlement of 50% of cyprid larvae)” value is 0.1 (see WO 01/95718) mg/ml.

Turning to `COC1CC(C)CCC1C(C)C` (stereo not drawn) [menthylmethylether, reference compound], the EC50 in assay [2] is 0.11 µg/mL (≈ 0.646 µM).

For `CC1CCC(C(C)C)C(O)C1` (stereo not drawn) [1R, 2S, 5R-(−)-menthol (=l-menthol), 1R, 2S, 5R-(−)-menthol], the “EC50 (concentration inhibiting settlement of 50% of cyprid larvae)” value in assay [1] is reported as 4 * 10^−3 (see WO 01/95718) mg/ml. For the same compound, in assay [3], the “% Settlement” value came to 12.2%.

In the case of `CC1CCC(C(C)C)C2(C1)OCC(CO)O2` (racemic) [rac-menthone glycerin acetal], the “EC50 (concentration inhibiting settlement of 50% of cyprid larvae)” value in assay [2] was found to be 0.049 µg/mL.

For the compound `CC(O)C(=O)O[C@@H]1C[C@H](C)CC[C@H]1C(C)C` (mixture of isomers) [I-menthyl lactate, 1-menthyllactate], in assay [2], the EC50 was 0.002 µg/mL.

With (−)-isopulegol, the “EC50 (concentration inhibiting settlement of 50% of cyprid larvae)” value in assay [1] is given as 8.8 * 10^−5 (see WO 01/95718) mg/ml.

As to `CC1CC[C@H](C(C)C)[C@@H](O)C1` (stereo partly drawn) [1S, 2R, 5S-(+)-menthol, reference compound], the “EC50 (concentration inhibiting settlement of 50% of cyprid larvae)” value in assay [1] is given as 0.1 (see WO 01/95718) mg/ml.

`C=C(C)[C@H]1CC=C(C)CC1` [d-limonene, reference compound]: the “EC50 (concentration inhibiting settlement of 50% of cyprid larvae)” value in assay [2] came out at 0.029 µg/mL.

Regarding l-menthyl propyleneglycol carbonate, the “EC50 (concentration inhibiting settlement of 50% of cyprid larvae)” value in assay [2] worked out at 0.0022 µg/mL. Moreover, in assay [3], the “% Settlement” value is listed as 23.4%.

(−)-menthone [reference compound]: the “EC50 (concentration inhibiting settlement of 50% of cyprid larvae)” value in assay [1] is 0.001 (see WO 01/95718) mg/ml.

As for `C=C(C)[C@@H]1CC[C@@H](C)C[C@H]1O` (racemic) [rac-isopulegol], the “EC50 (concentration inhibiting settlement of 50% of cyprid larvae)” value in assay [2] was determined as 0.029 µg/mL. Also, in assay [3], the “% Settlement” value is recorded as 16.1%.

In the case of `CC(C)[C@@H]1CC[C@@H](C)C[C@@]12OCC(CO)O2` (stereo partly drawn) [menthone glycerin acetal], the EC50 in assay [2] was determined as 0.00052 µg/mL (≈ 0.00228 µM).
